According to US20050009894A1 (Aventis Pharma S.A., priority 2001, published 2005):

These compounds were tested against T1, human KDR enzyme (Homo sapiens, UniProt P35968) (assay: Phosphorylation of the substrate PLCγ by the enzyme KDR in vitro (flashplate technique)). Conditions: Table VII, degrees of activity by IC50 range; read-out: Activity.
T1 construct: The cytoplasmic domain of human KDR enzyme is cloned in the form of a GST fusion; GST; made in house; host or cells: SF21 insect cells (baculovirus, pFastBac)
Assay type: biochemical
Experimental: The inhibitory effect of the compounds is determined in a test of phosphorylation of a substrate by the enzyme KDR in vitro by the flasplate technique (96-well plate, NEN). The cytoplasmic domain of human KDR enzyme is cloned in the form of a GST fusion into the baculovirus expression vector pFastBac. The protein is expressed in the SF21 cells and purified to about 60% homogeneity.
The kinase activity of KDR is measured in 20 mM MOPS, 10 mM MgCl2, 10 mM MnCl2, 1 mM DTT, 2.5 mM EGTA, 10 mM β-glycerophosphate, pH 7.2 in the presence of 10 mM MgCl2, 100 μM Na3VO4, 1 mM NaF. 10 μl of the compound are added to 70 μl of kinase buffer containing 100 ng of KDR enzyme at 4° C. The reaction is initiated by adding 20 μl of solution containing 2 μg of substrate (fragment SH2-SH3 of PLCγ expressed in the form of a GST fusion protein), 2 μCi γ33P[ATP] and 2 μM cold ATP. After incubating for 1 h at 37° C., the reaction is quenched by adding 1 volume (100 μl) of 200 mM EDTA. The incubation buffer is removed and the wells are washed three times with 300 μl of PBS. The radioactivity is measured in each well using a Top Count NXT instrument (Packard).
Background noise is determined by measuring the radio-activity in wells in quadruplet containing radioactive ATP and the substrate alone.
An activity control is measured in wells in quadruplet containing all the reagents (γ33P-[ATP], KDR and the substrate PLCγ) and in the absence of compound.
The inhibition of the KDR activity with the compound of the invention is expressed as a percentage of inhibition of the control activity determined in the absence of compound.
The compound SU5614 (Calbiochem) (1 μM) is included in each plate as inhibition control.
The IC50 values for the compounds are calculated by plotting the dose-response curves. The IC50 corresponds to the concentration of compound that induces a 50% inhibition of the kinase activity.

T1 sequence (P35968 786-1356 limits assumed): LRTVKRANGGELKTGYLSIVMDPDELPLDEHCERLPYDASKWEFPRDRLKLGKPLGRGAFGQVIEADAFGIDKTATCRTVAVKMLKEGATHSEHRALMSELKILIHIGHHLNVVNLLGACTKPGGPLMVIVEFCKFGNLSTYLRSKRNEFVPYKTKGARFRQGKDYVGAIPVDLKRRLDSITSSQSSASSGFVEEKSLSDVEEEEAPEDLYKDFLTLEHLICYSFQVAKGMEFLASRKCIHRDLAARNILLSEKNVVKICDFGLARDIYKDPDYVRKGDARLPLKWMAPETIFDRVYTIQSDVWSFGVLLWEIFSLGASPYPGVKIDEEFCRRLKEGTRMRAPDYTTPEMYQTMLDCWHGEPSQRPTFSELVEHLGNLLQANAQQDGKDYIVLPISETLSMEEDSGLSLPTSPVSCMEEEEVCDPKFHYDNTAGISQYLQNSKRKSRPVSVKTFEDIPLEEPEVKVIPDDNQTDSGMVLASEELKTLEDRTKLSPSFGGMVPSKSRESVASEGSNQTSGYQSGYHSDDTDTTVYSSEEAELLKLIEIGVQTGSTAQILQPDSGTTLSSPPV

Q: How did the IC50 turn out when `COc1ccc(C(=O)COc2cc(-c3nc4ccccc4[nH]3)[nH]n2)cc1` [Example 212, 2-[5-(1H-Benzoimidazol-2-yl)-1H-pyrazol-3-yloxy]-1-(4-methoxy-phenyl)-ethanone] was run?
A: > 3 µM

Q: `O=C(NCCCn1ccnc1)c1ccc2[nH]c(-c3n[nH]c4ccccc34)nc2c1` [Example 174, 2-(1H-Indazol-3-yl)-1H-benzoimidazole-5-carboxylic acid (3-imidazol-1-yl-propyl)-amide] was tested. Which IC50 did it give?
A: 0.3 to 3 µM

Q: `O=C(NCc1ccc(Cl)c(F)c1)c1ccc2[nH]c(-c3n[nH]c4ccccc34)nc2c1` [Example 178, 2-(1H-Indazol-3-yl)-1H-benzoimidazole-5-carboxylic acid (3-fluoro-4-chloro-benzyl)amide] was tested. Which IC50 did it give?
A: < 0.3 µM

Q: With `OCc1cccc(-c2ccc3nc(-c4[nH]nc5ccccc45)[nH]c3c2)c1` [Example 133, {3-[2-(2H-Indazol-3-yl)-3H-benzoimidazol-5-yl]-phenyl}-methanol] as the compound, how does the IC50 read?
A: 0.3 to 3 µM

Q: Which IC50 does the source give for `Oc1ccc(-c2ccc3nc(-c4[nH]nc5ccccc45)[nH]c3c2)cc1` [Example 122, 4-[2-(2H-Indazol-3-yl)-3H-benzoimidazol-5-yl]-phenol] here?
A: 0.3 to 3 µM

Q: `O=C(COc1cc(-c2nc3ccccc3[nH]2)[nH]n1)C(F)(F)C(F)(F)F` [Example 199, 1-[5-(1H-Benzoimidazol-2-yl)-1H-pyrazol-3-yloxy]-3,3,4,4,4-pentafluoro-butan-2-one] was tested. Which IC50 did it give?
A: > 3 µM

Q: Which IC50 does the source give for `O=C(Oc1cc(-c2nc3ccccc3[nH]2)[nH]n1)c1ccncc1` [Example 214, Isonicotinic acid 5-(1H-benzoimidazol-2-yl)-1H-pyrazol-3-yl ester] here?
A: 0.3 to 3 µM

Q: How did the IC50 turn out when `c1ccc2sc(-c3ccc4nc(-c5[nH]nc6ccccc56)[nH]c4c3)cc2c1` [Example 126, 3-(6-Benzo[b]thiophen-2-yl-1H-benzoimidazol-2-yl)-2H-indazole] was run?
A: > 3 µM

Q: With `O=C(NCc1ccccc1F)c1ccc2[nH]c(-c3n[nH]c4ccccc34)nc2c1` [Example 165, 2-(1H-Indazol-3-yl)-1H-benzoimidazole-5-carboxylic acid 2-fluoro-benzylamide] as the compound, how does the IC50 read?
A: > 3 µM

Q: Which IC50 does the source give for `CC(C)(C)C(=O)Oc1cc(-c2nc3ccccc3[nH]2)[nH]n1` [Example 215, 2,2-Dimethyl-propionic acid 5-(1H-benzoimidazole-2-yl)-1H-pyrazol-3-yl ester] here?
A: > 3 µM

Q: For `CC(C)(C)OC(=O)N1CCN(C(=O)c2ccc3[nH]c(-c4n[nH]c5ccccc45)nc3c2)CC1` [Example 175, 4-[2-(1H-Indazol-3-yl)-1H-benzoimidazole-5-carbonyl]-piperazine-1-carboxylic acid tert-butyl ester], which IC50 is on record?
A: 0.3 to 3 µM

Q: `O=C(NCc1cccc2ccccc12)c1cccc2nc(-c3n[nH]c4ccccc34)[nH]c12` [Example 76, 2-(1H-Indazol-3-yl)-3H-benzoimidazole-4-carboxylic acid (naphthalen-1-ylmethyl)-amide] was tested. Which IC50 did it give?
A: > 3 µM

Q: For `O=C(NCc1cccnc1)c1ccc2[nH]c(-c3n[nH]c4ccccc34)nc2c1` [Example 38, 2-(1H-Indazol-3-yl)-1H-benzoimidazole-5-carboxylic acid (pyridin-3-ylmethyl)-amide], which IC50 is on record?
A: 0.3 to 3 µM

Q: Which IC50 does the source give for `O=C(NCc1ccc(F)c(F)c1)c1ccc2[nH]c(-c3n[nH]c4ccccc34)nc2c1` [Example 160, 2-(1H-Indazol-3-yl)-1H-benzoimidazole-5-carboxylic acid 3,4-difluoro-benzylamide] here?
A: 0.3 to 3 µM

Q: How did the IC50 turn out when `NS(=O)(=O)c1ccc(CNC(=O)c2cccc3nc(-c4n[nH]c5ccccc45)[nH]c23)cc1` [Example 73, 2-(1H-Indazol-3-yl)-3H-benzoimidazole-4-carboxylic acid 4-sulfamoyl-benzylamide] was run?
A: 0.3 to 3 µM

Q: How did the IC50 turn out when `O=C(NCc1ccccc1OC(F)(F)F)c1ccc2[nH]c(-c3n[nH]c4ccccc34)nc2c1` [Example 44, 2-(1H-Indazol-3-yl)-1H-benzoimidazole-5-carboxylic acid 2-trifluoromethoxy-benzylamide] was run?
A: 0.3 to 3 µM

Q: How did the IC50 turn out when `c1ccc(COc2cc(-c3nc4ccccc4[nH]3)[nH]n2)cc1` [Example 181, 2-[5-(benzyloxy)-2H-pyrazol-3-yl]-1H-benzoimidazole] was run?
A: 0.3 to 3 µM

Q: How did the IC50 turn out when `O=C(NCc1ccc(F)cc1F)c1ccc2[nH]c(-c3n[nH]c4ccccc34)nc2c1` [Example 155, 2-(1H-Indazol-3-yl)-1H-benzoimidazole-5-carboxylic acid 2,4-difluoro-benzylamide] was run?
A: 0.3 to 3 µM

Q: `O=C(NCc1cccc2ccccc12)c1ccc2[nH]c(-c3n[nH]c4ccccc34)nc2c1` [Example 32, 2-(1H-Indazol-3-yl)-1H-benzoimidazole-5-carboxylic acid (naphthalen-1-ylmethyl)-amide] was tested. Which IC50 did it give?
A: 0.3 to 3 µM

Q: `Cc1ccccc1-c1ccc2nc(-c3[nH]nc4ccccc34)[nH]c2c1` [Example 109, 3-(6-o-Tolyl-1H-benzoimidazol-2-yl)-2H-indazole] was tested. Which IC50 did it give?
A: 0.3 to 3 µM

Q: `O=C(Oc1cc(-c2nc3ccccc3[nH]2)[nH]n1)c1ccc(C(F)(F)F)cc1` [Example 227, 4-Trifluoromethyl-benzoic acid 5-(1H-benzoimidazol-2-yl)-1H-pyrazol-3-yl ester] was tested. Which IC50 did it give?
A: > 3 µM

Q: `Cc1cc(Cl)cc(F)c1CNC(=O)c1ccc2[nH]c(-c3n[nH]c4ccccc34)nc2c1` [Example 179, 2-(1H-Indazol-3-yl)-1H-benzoimidazole-5-carboxylic acid (2-fluoro-4-chloro-6-methyl-benzyl)amide] was tested. Which IC50 did it give?
A: < 0.3 µM

Q: `CN(C)c1ccc(C(=O)COc2cc(-c3nc4ccccc4[nH]3)[nH]n2)cc1` [Example 202, 2-[5-(1H-Benzoimidazol-2-yl)-1H-pyrazol-3-yloxy]-1-(4-dimethylamino-phenyl)-ethanone] was tested. Which IC50 did it give?
A: > 3 µM

Q: How did the IC50 turn out when `O=C(COc1cc(-c2nc3ccccc3[nH]2)[nH]n1)c1cc(-c2ccccc2)no1` [Example 203, 2-[5-(1H-Benzoimidazol-2-yl)-1H-pyrazol-3-yloxy]-1-(3-phenyl-isoxazol-5-yl)-ethanone] was run?
A: > 3 µM

Q: With `O=C(NCc1cccs1)c1cccc2nc(-c3n[nH]c4ccccc34)[nH]c12` [Example 77, 2-(1H-Indazol-3-yl)-3H-benzoimidazole-4-carboxylic acid (thiophen-2-ylmethyl)-amide] as the compound, how does the IC50 read?
A: > 3 µM

Q: How did the IC50 turn out when `O=C(NCc1cccc(Br)c1)c1cccc2nc(-c3n[nH]c4ccccc34)[nH]c12` [Example 81, 2-(1H-Indazol-3-yl)-3H-benzoimidazole-4-carboxylic acid 3-bromo-benzylamide] was run?
A: > 3 µM

Q: With `Cc1cc(C)cc(-c2ccc3nc(-c4[nH]nc5ccccc45)[nH]c3c2)c1` [Example 115, 3-[6-(3,5-Dimethyl-phenyl)-1H-benzoimidazol-2-yl]-2H-indazole] as the compound, how does the IC50 read?
A: 0.3 to 3 µM

Q: With `CC(C)OCCCNC(=O)c1ccc2[nH]c(-c3n[nH]c4ccccc34)nc2c1` [Example 50, 2-(1H-Indazol-3-yl)-1H-benzoimidazole-5-carboxylic acid (3-isopropoxy-propyl)-amide] as the compound, how does the IC50 read?
A: 0.3 to 3 µM

Q: For `O=C(NCc1ccc(-c2ccccc2Cl)cc1)c1ccc2[nH]c(-c3n[nH]c4ccccc34)nc2c1` [Example 171, 2-(1H-Indazol-3-yl)-1H-benzoimidazole-5-carboxylic acid (2′-chloro-biphenyl-4-ylmethyl)-amide], which IC50 is on record?
A: 0.3 to 3 µM

Q: With `O=C(CCc1ccccc1)Oc1cc(-c2nc3ccccc3[nH]2)[nH]n1` [Example 224, 3-Phenyl-propionic acid 5-(1H-benzoimidazol-2-yl)-1H-pyrazol-3-yl ester] as the compound, how does the IC50 read?
A: 0.3 to 3 µM

Q: How did the IC50 turn out when `Cc1ccsc1CNC(=O)c1ccc2[nH]c(-c3n[nH]c4ccccc34)nc2c1` [Example 46, 2-(1H-Indazol-3-yl)-1H-benzoimidazole-5-carboxylic acid (3-methyl-thiophen-2-ylmethyl)-amide] was run?
A: 0.3 to 3 µM

Same assay, conditions: product tested at 10 μM; read-out: % of inhibition of the phosphorylation of PLCγ by KDR (product tested at a concentration of 10 μM)

Q: Which inhibition at 10 µM does the source give for `Brc1ccc2nc(-c3n[nH]c4ccccc34)[nH]c2c1` [Example 18, 5-Bromo-2-(1H-indazol-3-yl)-3H-benzimidazole] here?
A: 91.2%

Same assay, conditions: read-out: IC50 (μM) on inhibition of the phosphory-lation of PLCγ by KDR

Q: `O=C(NCC1CCCCC1)c1ccc2[nH]c(-c3n[nH]c4ccccc34)nc2c1` [Example 11, 2-(1H-Indazol-3-yl)-1H-benzimidazole-5-carboxylic acid N-(cyclohexylmethyl)amide] was tested. Which IC50 did it give?
A: 0.26 µM

Q: How did the IC50 turn out when `COc1ccc2nc(-c3n[nH]c4ccccc34)[nH]c2c1` [Example 16, 5-Methoxy-2-(1H-indazol-3-yl)-1H-benzimidazole] was run?
A: 2 µM

Q: How did the IC50 turn out when `CN(Cc1ccccc1)C(=O)c1ccc2[nH]c(-c3n[nH]c4ccccc34)nc2c1` [Example 13, 2-(1H-Indazol-3-yl)-1H-benzimidazole-5-carboxylic acid N-benzyl-N-methylamide] was run?
A: 0.61 µM
